According to patent publication US6096863A, “Self-assembling amphiphiles for construction of peptide secondary structures” (Regents of the University of Minnesota, priority 1996, dated 2000):
Starred links: 1 amine or outer side, 2 acyl side, 3 side chain; linkers in the order of their positions; H or OH if unused. Non-standard residues stand in square brackets, D forms with d. Residues, ends and D or L forms follow the SMILES beside them. *: point of attachment. X2 = CCCCCCCCCCCCCCCCOC(=O)CC[C@H](N*)C(=O)OCCCCCCCCCCCCCCCC; X1 = CCCCCCCCCCCCCCOC(=O)CC[C@H](N*)C(=O)OCCCCCCCCCCCCCC; X3 = CCCCCCCCCCCCOC(=O)CC[C@H](N*)C(=O)OCCCCCCCCCCCC; Hyp = O=C(O)[C@@H]1C[C@@H](O)CN1; Suc = O=C(CCC(=O)[*:2])[*:1]

How the values were obtained:
[1] = Circular dichroism spectroscopy; format: physicochemical; details: 25° C., 0.5 mM in H2O, λ=225 nm
Protocol: Spectra were recorded on a JASCO J-710 spectropolarimeter using a thermostated 0.1 mm quartz cell. Thermal transition curves were obtained by recording the molar ellipticity ([θ]) in the range of 10-80° C. at λ=225 nm. The peptide and peptide-amphiphile concentrations were 0.5 mM in H2 O at 25° C.

[2] = Surface pressure-area isotherms of monolayers at the air-water interface; format: physicochemical; details: for limiting surface area (monolayer reaches maximum surface pressure and collapses): 22° C., pure water subphase
Protocol: All isotherms were obtained at 22° C. after spreading a peptide amphiphile solution in hexane-CHCl3 -methanol (5:4:1) over a pure water subphase. After 15 minutes, the monolayer was compressed laterally with constant speed for 10 mm/minute on a computerized KSV LB5000 Langmuir-Blodgett instrument and surface pressure detected using film balance with a platinum Wilhemy plate.

[3] = test system: melanoma cell; details: cited from earlier work

Structure (SMILES)	CD spectrum, positive ellipticity (poly-Pro II / triple-helix-like structure) [1]	limiting surface area (monolayer reaches maximum surface pressure and collapses) [2]	surface activity / formation of monolayers at the air-water interface [2]	melanoma cell adhesion and spreading [3]
CCCCCCCCCCCCOC(=O)CC[C@H](NC(=O)CCC(=O)NCC(=O)N[C@H](C(=O)N[C@@H](CCCCN)C(=O)NCC(=O)N[C@@H](CC(=O)O)C(=O)N[C@@H](CCCCN)C(=O)NCC(=O)N[C@@H](CC(N)=O)C(=O)N1CCC[C@H]1C(=O)NCC(=O)N[C@@H](Cc1c[nH]c2ccccc12)C(=O)N1CCC[C@H]1C(=O)NCC(=O)N[C@@H](C)C(=O)N1CCC[C@H]1C(N)=O)C(C)C)C(=O)OCCCCCCCCCCCC [(C12)2 -Glu-C2-[IV-H1]] ({X3-Suc}-GVKGDKGNPGWPGAP-NH2)	no positive ellipticity	–	–	–
CCCCCCCCCCCCCCOC(=O)CC[C@H](NC(=O)CCC(=O)NCC(=O)N[C@H](C(=O)N[C@@H](CCCCN)C(=O)NCC(=O)N[C@@H](CC(=O)O)C(=O)N[C@@H](CCCCN)C(=O)NCC(=O)N[C@@H](CC(N)=O)C(=O)N1CCC[C@H]1C(=O)NCC(=O)N[C@@H](Cc1c[nH]c2ccccc12)C(=O)N1CCC[C@H]1C(=O)NCC(=O)N[C@@H](C)C(=O)N1CCC[C@H]1C(=O)NCC(=O)N1CCC[C@H]1C(=O)N1C[C@H](O)C[C@H]1C(=O)NCC(=O)N1CCC[C@H]1C(=O)N1C[C@H](O)C[C@H]1C(=O)NCC(=O)N1CCC[C@H]1C(=O)N1C[C@H](O)C[C@H]1C(=O)NCC(=O)N1CCC[C@H]1C(=O)N1C[C@H](O)C[C@H]1C(N)=O)C(C)C)C(=O)OCCCCCCCCCCCCCC [(C14)2 -Glu-C2 -[IV-H1]-(Gly-Pro-Hyp)4] ({X1-Suc}-GVKGDKGNPGWPGAPGP[Hyp]GP[Hyp]GP[Hyp]GP[Hyp]-NH2)	–	0.6 nm^2 /molecule	–	–
CCCCCCCCCCCCCCCCOC(=O)CC[C@H](NC(=O)CCC(=O)NCC(=O)N1CCC[C@H]1C(=O)N1C[C@H](O)C[C@H]1C(=O)NCC(=O)N1CCC[C@H]1C(=O)N1C[C@H](O)C[C@H]1C(=O)NCC(=O)N1CCC[C@H]1C(=O)N1C[C@H](O)C[C@H]1C(=O)NCC(=O)N1CCC[C@H]1C(=O)N1C[C@H](O)C[C@H]1C(=O)NCC(=O)N[C@H](C(=O)N[C@@H](CCCCN)C(=O)NCC(=O)N[C@@H](CC(=O)O)C(=O)N[C@@H](CCCCN)C(=O)NCC(=O)N[C@@H](CC(N)=O)C(=O)N1CCC[C@H]1C(=O)NCC(=O)N[C@@H](Cc1c[nH]c2ccccc12)C(=O)N1CCC[C@H]1C(=O)NCC(=O)N[C@@H](C)C(=O)N1CCC[C@H]1C(N)=O)C(C)C)C(=O)OCCCCCCCCCCCCCCCC [(C16)2 -Glu-C2 -(Gly-Pro-Hyp)4 -[IV-H1]] ({X2-Suc}-GP[Hyp]GP[Hyp]GP[Hyp]GP[Hyp]GVKGDKGNPGWPGAP-NH2)	–	0.6 nm^2 /molecule	–	–
CC(C)[C@H](NC(=O)CN)C(=O)N[C@@H](CCCCN)C(=O)NCC(=O)N[C@@H](CC(=O)O)C(=O)N[C@@H](CCCCN)C(=O)NCC(=O)N[C@@H](CC(N)=O)C(=O)N1CCC[C@H]1C(=O)NCC(=O)N[C@@H](Cc1c[nH]c2ccccc12)C(=O)N1CCC[C@H]1C(=O)NCC(=O)N[C@@H](C)C(=O)N1CCC[C@H]1C(N)=O [[IV-H1]] (H-GVKGDKGNPGWPGAP-NH2)	did not show any positive ellipticity	–	not surface active	promote melanoma cell adhesion and spreading
